Laboratory results from patent US12152012B2, “BRAG2 inhibitors and applications thereof” (CENTRE NATIONAL DE LA RECHERCHE SCIENTIFIQUE, priority 2018, dated 2024).

Key:
[1] = test system: GM130 (cis-Golgi marker) in Hela cells; test: Immunostaining and confocal microscopy of Hela cells; format: cell-based, human; details: for Reversibility of GM130 dispersion: 50 μM 30 min, then 30 min in fresh medium; for Dispersion of GM130 marker: 50 μM, 30 min
Method: (§1) FIG. 1. Bragsin2 affects Arf pathways in cells • a. Chemical structures of Bragsin1 and Bragsin2 and derivatives used in this study. Chemical synthesis and structural characterization of the compounds are described in example 6. • b. Bragsin2 disperses the TGN46 and GM130 markers. HeLa cells were treated with either DMSO (0.25%) or Bragsin2 (50 μM) for 30 min, immunostained for TGN46, GM130 or EEA1 (green channel) and analysed by confocal microscopy. Dispersion of GM130 and TGN46 by Bragsin2 is reversible. Hela cells were treated as in FIG. 1a and were incubated for an additional 30 min in fresh medium (wash panel) prior to immunostaining and confocal microscopy analysis. Expression of Arf-mCherry constructs carrying an activating mutation rescues the effect of Bragsin2. Hela cells were transfected with constitutively active Q/L mutants of Arf-mCherry. Note the difference between non-transfected cells (white asterisk) and transfected cells. Scale bars, 10 μm.
(§2) Hela cells were grown in Dulbecco's modified Eagle's medium supplemented with Glutamax™ and 10% fetal bovine serum (Invitrogen). For immunofluorescence studies, cells were grown on Labtek glass slides (Nunc) and transfected for 18 to 24 h using Lipofectamine 2000 (Invitrogen), according to the supplier's instructions. When specified, cells were treated with the indicated concentration of small molecule or corresponding volume of vehicle (DMSO) in growth medium for 30 min at 37° C.
(§3) Immunostaining procedure was as described in (Viaud, J. et al. Structure-based discovery of an inhibitor of Arf activation by Sec7 domains through targeting of protein-protein complexes. Proc Natl Acad Sci USA 104, 10370-5 (2007)) except that secondary antibody incubation was performed for 1h using Alexa 488-conjugated goat anti-mouse (1:600) or donkey anti-sheep (1:500) IgG and Alexa 647-conjugated phalloidin (1:100). Anti-GM130 was used at dilution 1:200. Images were bidirectionally recorded using an inverted Leica TCS SP8 laser-scanning confocal microscope with a 100× (N. A. 1.40) oil objective (HCX APO, Leica). Fluorochromes were detected sequentially using excitation laser lines at 488 nm (Alexa 488), 594 nm (mCherry) and 633 nm (Alexa 647). Stacks were generated using a z-step of 0.5 μm and processed using Fiji/ImageJ (Schindelin, J. et al. Fiji: an open-source platform for biological-image analysis. Nat Methods 9, 676-82 (2012)). Images are representative of at least two independent experiments.

[2] = test system: TGN46 (trans-Golgi network marker) in Hela cells; test: as above; format: cell-based, human; details: for Reversibility of TGN46 dispersion / Dispersion of TGN46 marker: Hela cells; for Reversibility of TGN46 dispersion: 50 μM 30 min, then 30 min in fresh medium; for Dispersion of TGN46 marker: 50 μM, 30 min; for Rescue of compound-induced TGN46 dispersion by constitutively active Arf1, Arf5, Arf6 Q/L-mCherry: transfected Hela cells
Method: as §1, §2, §3

[3] = Stability in aqueous solution / PBS (mass spectroscopy); format: physicochemical; details: for Chemical stability in aqueous solution: after a few days in aqueous solution; for Stability in PBS by mass spectroscopy: dissolved in PBS, within 72 hours

Chemical stability in aqueous solution [3] | Stability in PBS by mass spectroscopy [3] | Structure (SMILES) | Reversibility of GM130 dispersion [1] | Dispersion of GM130 marker [1] | Reversibility of TGN46 dispersion [2] | Dispersion of TGN46 marker [2] | Rescue of compound-induced TGN46 dispersion by constitutively active Arf1, Arf5, Arf6 Q/L-mCherry [2]
resistant to hydration and stable | remained stable | COc1ccc2oc(C(F)(F)F)cc(=O)c2c1[N+](=O)[O-] [Bragsin2, 6-methoxy-5-nitro-2-(trifluoromethyl)-4H-chromen-4-one] | reversible | disperses | reversible | disperses | rescues
chemically unstable | slowly decomposed | Cc1ccc2oc(C(F)(F)F)cc(=O)c2c1[N+](=O)[O-] [Bragsin1, 6-methyl-5-nitro-2-(trifluoromethyl)-4H-chromen-4-one] | reversible | disperses | reversible | disperses | rescues
